# Measurements reported in ChEMBL document CHEMBL4308841, “Synthesis, in vitro antiproliferative activity, and kinase inhibitory effects of pyrazole-containing diarylureas and diarylamides” (Eur J Med Chem, 2018).
# pIC50: −log10 of the molar value.
# Columns and labels:
# A549 = experiment: Growth inhibition of human A549/ATCC cells incubated for 48 hrs by sulforhodamine B assay; assay type: functional, cell-based; settings: A549, 48 h
# HCT-116 [1] = experiment: Growth inhibition of human HCT116 cells incubated for 48 hrs by sulforhodamine B assay; assay type: functional, cell-based; settings: HCT-116, 48 h
# SF-295 = experiment: Growth inhibition of human SF295 cells incubated for 48 hrs by sulforhodamine B assay; assay type: functional, cell-based; settings: SF-295, 48 h
# SK-MEL-28 = experiment: Growth inhibition of human SK-MEL-28 cells incubated for 48 hrs by sulforhodamine B assay; assay type: functional, cell-based; settings: SK-MEL-28, 48 h
# MDA-MB-231 [2] = experiment: Growth inhibition of human MDA-MB-231 cells incubated for 48 hrs by sulforhodamine B assay; assay type: functional, cell-based; settings: MDA-MB-231, 48 h
# T47D [3] = experiment: Growth inhibition of human T47D cells incubated for 48 hrs by sulforhodamine B assay; assay type: functional, cell-based
# K562 = experiment: Growth inhibition of human K562 cells assessed as cell growth at 0.01 uM incubated for 48 hrs by sulforhodamine B assay relative to control; assay type: functional; settings: K562, 48 h, read-out: Activity
# Malme-3M = experiment: Growth inhibition of human MALME-3M cells assessed as cell growth at 0.01 uM incubated for 48 hrs by sulforhodamine B assay relative to control; assay type: functional; settings: read-out: Activity
# OVCAR-8 = experiment: Growth inhibition of human OVCAR8 cells assessed as cell growth at 0.01 uM incubated for 48 hrs by sulforhodamine B assay relative to control; assay type: functional; settings: OVCAR-8, 48 h, read-out: Activity
# A498 = experiment: Growth inhibition of human A498 cells assessed as cell growth at 0.01 uM incubated for 48 hrs by sulforhodamine B assay relative to control; assay type: functional; settings: A498, 48 h, read-out: Activity
# CAKI-1 = experiment: Growth inhibition of human Caki1 cells assessed as cell growth at 0.01 uM incubated for 48 hrs by sulforhodamine B assay relative to control; assay type: functional; settings: CAKI-1, 48 h, read-out: Activity
# NCI-H460 = experiment: Growth inhibition of human NCI-H460 cells assessed as cell growth at 0.1 uM incubated for 48 hrs by sulforhodamine B assay relative to control; assay type: functional; settings: NCI-H460, 48 h, read-out: Activity
# HCT-116 [4] = experiment: Growth inhibition of human HCT116 cells assessed as cell growth at 0.1 uM incubated for 48 hrs by sulforhodamine B assay relative to control; assay type: functional; settings: HCT-116, 48 h, read-out: Activity
# IGROV-1 = experiment: Growth inhibition of human IGROV1 cells assessed as cell growth at 0.1 uM incubated for 48 hrs by sulforhodamine B assay relative to control; assay type: functional; settings: IGROV-1, 48 h, read-out: Activity
# NCI/ADR-RES = experiment: Growth inhibition of human NCI/ADR-RES cells assessed as cell growth at 0.1 uM incubated for 48 hrs by sulforhodamine B assay relative to control; assay type: functional; settings: read-out: Activity
# ACHN = experiment: Growth inhibition of human ACHN cells assessed as cell growth at 0.1 uM incubated for 48 hrs by sulforhodamine B assay relative to control; assay type: functional; settings: read-out: Activity
# MCF7 = experiment: Growth inhibition of human MCF7 cells assessed as cell growth at 0.1 uM incubated for 48 hrs by sulforhodamine B assay relative to control; assay type: functional; settings: MCF7, 48 h, read-out: Activity
# T47D [5] = experiment: Growth inhibition of human T47D cells assessed as cell growth at 0.1 uM incubated for 48 hrs by sulforhodamine B assay relative to control; assay type: functional; settings: read-out: Activity
# SNB-75 = experiment: Growth inhibition of human SNB75 cells assessed as cell growth at 1 uM incubated for 48 hrs by sulforhodamine B assay relative to control; assay type: functional; settings: SNB-75, 48 h, read-out: Activity
# MDA-MB-435 = experiment: Growth inhibition of human MDA-MB-435 cells assessed as cell growth at 1 uM incubated for 48 hrs by sulforhodamine B assay relative to control; assay type: functional; settings: MDA-MB-435, 48 h, read-out: Activity
# UACC-62 [6] = experiment: Growth inhibition of human UACC62 cells assessed as cell growth at 1 uM incubated for 48 hrs by sulforhodamine B assay relative to control; assay type: functional; settings: UACC-62, 48 h, read-out: Activity
# RXF 393 = experiment: Growth inhibition of human RXF393 cells assessed as cell growth at 1 uM incubated for 48 hrs by sulforhodamine B assay relative to control; assay type: functional; settings: RXF 393, 48 h, read-out: Activity
# DU-145 [7] = experiment: Growth inhibition of human DU145 cells assessed as cell growth at 1 uM incubated for 48 hrs by sulforhodamine B assay relative to control; assay type: functional; settings: DU-145, 48 h, read-out: Activity
# T47D [8] = experiment: Growth inhibition of human T47D cells assessed as cell growth at 1 uM incubated for 48 hrs by sulforhodamine B assay relative to control; assay type: functional; settings: read-out: Activity
# KM12 = experiment: Growth inhibition of human KM12 cells assessed as cell growth at 100 uM incubated for 48 hrs by sulforhodamine B assay relative to control; assay type: functional; settings: KM12, 48 h, read-out: Activity
# SK-MEL-2 = experiment: Growth inhibition of human SK-MEL-2 cells assessed as cell growth at 100 uM incubated for 48 hrs by sulforhodamine B assay relative to control; assay type: functional; settings: SK-MEL-2, 48 h, read-out: Activity
# UACC-62 [9] = experiment: Growth inhibition of human UACC62 cells assessed as cell growth at 100 uM incubated for 48 hrs by sulforhodamine B assay relative to control; assay type: functional; settings: UACC-62, 48 h, read-out: Activity
# DU-145 [10] = experiment: Growth inhibition of human DU145 cells assessed as cell growth at 100 uM incubated for 48 hrs by sulforhodamine B assay relative to control; assay type: functional; settings: DU-145, 48 h, read-out: Activity
# MDA-MB-231 [11] = experiment: Growth inhibition of human MDA-MB-231 cells assessed as cell growth at 100 uM incubated for 48 hrs by sulforhodamine B assay relative to control; assay type: functional; settings: MDA-MB-231, 48 h, read-out: Activity
# [12] = read-out: LC50 (the source's name)
# [13] = read-out: pLC50 (the source's name) (converted)
structure (smiles),measurement,setting,value
COc1cc(Cl)cc(-c2nn(-c3cccc(NC(=O)c4ccc(N5CCOCC5)c(C(F)(F)F)c4)c3)cc2-c2ccncc2)c1,pIC50,A549,5.04
same,GI50,A549; read-out: GI50,9.15 µM
same,CC50,A549; [12],> 100 µM
same,TGI,A549; read-out: TGI,> 100 µM
same,GI50,A549; read-out: pGI50 (converted),9.12 µM
same,CC50,A549; [13],> 100 µM
same,TGI,A549; read-out: pTGI (converted),> 100 µM
same,pIC50,HCT-116 [1],5.02
same,GI50,HCT-116 [1]; read-out: GI50,9.54 µM
same,CC50,HCT-116 [1]; [12],> 100 µM
same,TGI,HCT-116 [1]; read-out: TGI,> 100 µM
same,GI50,HCT-116 [1]; read-out: pGI50 (converted),9.55 µM
same,CC50,HCT-116 [1]; [13],> 100 µM
same,TGI,HCT-116 [1]; read-out: pTGI (converted),> 100 µM
same,GI50,SF-295; read-out: GI50,2.71 µM
same,CC50,SF-295; [12],> 100 µM
same,TGI,SF-295; read-out: TGI,14.8 µM
same,GI50,SF-295; read-out: pGI50 (converted),2.19 µM
same,CC50,SF-295; [13],> 100 µM
same,TGI,SF-295; read-out: pTGI (converted),14.8 µM
same,GI50,SK-MEL-28; read-out: GI50,1.48 µM
same,CC50,SK-MEL-28; [12],> 100 µM
same,TGI,SK-MEL-28; read-out: TGI,> 100 µM
same,GI50,SK-MEL-28; read-out: pGI50 (converted),14.8 µM
same,CC50,SK-MEL-28; [13],> 100 µM
same,TGI,SK-MEL-28; read-out: pTGI (converted),> 100 µM
same,GI50,MDA-MB-231 [2]; read-out: GI50,2.53 µM
same,CC50,MDA-MB-231 [2]; [12],> 100 µM
same,TGI,MDA-MB-231 [2]; read-out: TGI,32.4 µM
same,GI50,MDA-MB-231 [2]; read-out: pGI50 (converted),2.82 µM
same,CC50,MDA-MB-231 [2]; [13],> 100 µM
same,TGI,MDA-MB-231 [2]; read-out: pTGI (converted),32.4 µM
same,GI50,T47D [3]; read-out: GI50,1.04 µM
same,CC50,T47D [3]; [12],> 100 µM
same,TGI,T47D [3]; read-out: TGI,> 100 µM
same,GI50,T47D [3]; read-out: pGI50 (converted),10.5 µM
same,CC50,T47D [3]; [13],> 100 µM
same,TGI,T47D [3]; read-out: pTGI (converted),> 100 µM
same,growth at 0.01 µM,K562,100%
same,growth at 0.01 µM,Malme-3M,91%
same,growth at 0.01 µM,OVCAR-8,99%
same,growth at 0.01 µM,A498,59%
same,growth at 0.01 µM,CAKI-1,98%
same,growth at 0.1 µM,NCI-H460,102%
same,growth at 0.1 µM,HCT-116 [4],97%
same,growth at 0.1 µM,IGROV-1,100%
same,growth at 0.1 µM,NCI/ADR-RES,99%
same,growth at 0.1 µM,ACHN,91%
same,growth at 0.1 µM,MCF7,92%
same,growth at 0.1 µM,T47D [5],95%
same,growth at 1 µM,SNB-75,51%
same,growth at 1 µM,MDA-MB-435,92%
same,growth at 1 µM,UACC-62 [6],84%
same,growth at 1 µM,RXF 393,45%
same,growth at 1 µM,DU-145 [7],105%
same,growth at 1 µM,T47D [8],93%
same,growth at 100 µM,KM12,20%
same,growth at 100 µM,SK-MEL-2,15%
same,growth at 100 µM,UACC-62 [9],10%
same,growth at 100 µM,DU-145 [10],54%
same,growth at 100 µM,MDA-MB-231 [11],-10%
COc1cc(Cl)cc(-c2nn(-c3cccc(NC(=O)Nc4cccc(C(F)(F)F)c4)c3)cc2-c2ccncc2)c1,pIC50,A549,6.14
same,GI50,A549; read-out: GI50,0.726 µM
same,CC50,A549; [12],> 100 µM
same,TGI,A549; read-out: TGI,74.2 µM
same,GI50,A549; read-out: pGI50 (converted),0.724 µM
same,CC50,A549; [13],> 100 µM
same,TGI,A549; read-out: pTGI (converted),7.41 µM
same,pIC50,HCT-116 [1],6.12
same,GI50,HCT-116 [1]; read-out: GI50,0.754 µM
same,CC50,HCT-116 [1]; [12],35.7 µM
same,TGI,HCT-116 [1]; read-out: TGI,75.1 µM
same,GI50,HCT-116 [1]; read-out: pGI50 (converted),0.759 µM
same,CC50,HCT-116 [1]; [13],38.9 µM
same,TGI,HCT-116 [1]; read-out: pTGI (converted),7.59 µM
same,GI50,SF-295; read-out: GI50,0.753 µM
same,CC50,SF-295; [12],75.9 µM
same,TGI,SF-295; read-out: TGI,45.2 µM
same,GI50,SF-295; read-out: pGI50 (converted),0.776 µM
same,CC50,SF-295; [13],77.6 µM
same,TGI,SF-295; read-out: pTGI (converted),4.57 µM
same,GI50,SK-MEL-28; read-out: GI50,2.53 µM
same,CC50,SK-MEL-28; [12],> 100 µM
same,TGI,SK-MEL-28; read-out: TGI,12.1 µM
same,GI50,SK-MEL-28; read-out: pGI50 (converted),2.51 µM
same,CC50,SK-MEL-28; [13],> 100 µM
same,TGI,SK-MEL-28; read-out: pTGI (converted),12 µM
same,GI50,MDA-MB-231 [2]; read-out: GI50,1.59 µM
same,CC50,MDA-MB-231 [2]; [12],> 100 µM
same,TGI,MDA-MB-231 [2]; read-out: TGI,49.1 µM
same,GI50,MDA-MB-231 [2]; read-out: pGI50 (converted),1.58 µM
same,CC50,MDA-MB-231 [2]; [13],> 100 µM
same,TGI,MDA-MB-231 [2]; read-out: pTGI (converted),4.9 µM
same,GI50,T47D [3]; read-out: GI50,1.23 µM
same,CC50,T47D [3]; [12],> 100 µM
same,TGI,T47D [3]; read-out: TGI,59.9 µM
same,GI50,T47D [3]; read-out: pGI50 (converted),1.23 µM
same,CC50,T47D [3]; [13],> 100 µM
same,TGI,T47D [3]; read-out: pTGI (converted),6.92 µM
same,growth at 0.01 µM,K562,104%
same,growth at 0.01 µM,Malme-3M,95%
same,growth at 0.01 µM,OVCAR-8,97%
same,growth at 0.01 µM,A498,95%
same,growth at 0.01 µM,CAKI-1,102%
same,growth at 0.1 µM,NCI-H460,102%
same,growth at 0.1 µM,HCT-116 [4],99%
same,growth at 0.1 µM,IGROV-1,96%
same,growth at 0.1 µM,NCI/ADR-RES,98%
same,growth at 0.1 µM,ACHN,92%
same,growth at 0.1 µM,MCF7,102%
same,growth at 0.1 µM,T47D [5],94%
same,growth at 1 µM,SNB-75,68%
same,growth at 1 µM,MDA-MB-435,85%
same,growth at 1 µM,UACC-62 [6],70%
same,growth at 1 µM,RXF 393,68%
same,growth at 1 µM,DU-145 [7],73%
same,growth at 1 µM,T47D [8],58%
same,growth at 100 µM,KM12,-48%
same,growth at 100 µM,SK-MEL-2,-68%
same,growth at 100 µM,UACC-62 [9],-82%
same,growth at 100 µM,DU-145 [10],7%
same,growth at 100 µM,MDA-MB-231 [11],-43%
